Here are results for four compounds from patent US9072729B2, “Method for treating fibrosis and cancer with imidazolium and imidazolinium compounds” (Agency for Science, Technology and Research, priority 2008, dated 2015).

Data set [1] concerns p53. The data set can be described thus: Immunostaining and confocal microscopy of p53. In kind it is cell-based, human. The conditions noted are these: HLE, 48 h. The procedure:
FIG. 39. IMSs-induced apoptosis was accompanied by accumulation of p53 in the nucleus. HLE cells were treated with the indicated dose of IBN 19 and IBN 24 for 48 h. The treated cells were fixed with 4% formaldehyde, immunostained with anti-p53 (green fluorescence) and DAPI (blue fluorescence), and analysed by confocal microscopy.
For immunostaining, HLE cells were seeded at a density of 1×10^4 in 8 well chamber slide. After 24 h incubation, the cells were replaced with 200 μl fresh 10% DMEM medium and then treated with 60 μM of IBN-15, 90 μM of IBN-19, 90 μM of IBN-24, 30 μM of IBN-25 and 20 μM of IBN-32 and 0.045% DMSO as control for 24 and 48 h. After washing, cells were fixed in 4% formaldehyde for 15 mins and permeabilized with 0.5% Triton X-100 in PBS for 10 mins. The cells were then blocked for 60 min in PBS containing 3% bovine serum albumin and then incubated for 1 h with a mouse antibody against nucleolin (MS-3, Santa Cruz; 1:100 in blocking buffer). After washing extensively with PBS, the cells were then incubated for 1 h at room temperature in dark with a FITC-conjugated antibody against mouse IgG (1:20 ilution). The slides were mounted with a VectaShield medium containing DAPI (Vector Laboratories, Burlingame, Calif.). Microscopy was performed with a Zeiss LSM 510 Meta (upright stand) confocal microscope.

Data set [2] deals with HLE cells. The data set can be described thus: Cell cycle analysis (PI flow cytometry). It is filed as cell-based, human. The conditions noted are these: 72 h; for cells in the S phase: at respective IC-50, control 24%; for cells in the G2/M phase: at respective IC-50, control 30%; for cells in the G1 phase: at respective IC-50, control 50%. Here is the method: FIG. 37. IMSs arrest Hepatocarcinoma cells. Cells were treated with vehicle and IBN 15, IBN 19, IBN 24, IBN 25 and IBN 32 for 72 h, and cell cycle distribution was assessed by flow cytometry. A) Example FACS profiles of propidium iodide-stained control cells, and cells treated with IMSs respectively. B) % of cells in cell cycle phase C) % of cells in subG0 population. Each value is the mean±S.D. of three determinations.
To perform cell cycle distribution analysis, 4×10^5 cells were plated in 10 cm dish. The cells (70% confluence) were serum-starved for 24 h to synchronize them in the G0 phase of the cell cycle. After 24 h incubation, the cells were replaced with fresh 10% DMEM medium and then treated 60 μM of IBN-15, 90 μM of IBN-19, 90 μM of IBN-24, 30 μM of […] and 20 μM of IBN-32) and 0.045% DMSO as control for 72 h. The floating and trypsinized adherent cells were collected and washed with PBS. The cell pellets were resuspended in 1 ml of PBS and fixed by the addition of 70% ice-cold ethanol and stored at −20° C. After incubation for 24 hr, the cells were re-pelleted by centrifugation, the cells were washed once with PBS and resuspended in 0.1 mL of PBS containing 100 μg/ml of RNase and then incubated at 37° C. for 15 min. Finally, the cells were stained with 0.5 ml of PI solution (100 μg/mL in PBS) for 30 min. Cell cycle distribution was detected by a BD FACS array flow cytometer (Becton Dickinson). Cells with sub-G0 DNA were classified as apoptotic cells.
A general note: Flow cytometry measures light scatter and fluorescence of single cells or particles in a stream.

In data set [3] the test system is HLE cells. The data set is described as follows: Apoptosis assay (Annexin V-FITC/PI flow cytometry). In kind it is cell-based, human. The conditions noted are these: 72 h, IBN-15 60 μM, IBN-19 90 μM, IBN-24 90 μM, IBN-25 30 μM, IBN-32 20 μM, DMSO 0.045%. Here is the method: FIG. 36. IMSs induce apoptosis in Hepatocarcinoma cells. A) Cells were treated with vehicle and IBN 15, IBN 19, IBM 24, IBN 25 and IBN 32 for 72 h, and apoptosis was quantified using Annexin V-FITC/PI staining followed by flow cytometric analysis. 10,000 cells were detected for every sample. Living cells are in the bottom left quadrants (FITC− and PI−), early apoptotic cells in the bottom right quadrants (FITC+ and PI−), and late apoptotic cells in the upper right quadrants (apoptotic FITC+ and PI+). B) The percentage of apoptotic cells with respect to different IMSs.
To determine apoptosis analysis, 4×10^5 cells were plated in 10 cm dish. […] The floating and trypsinized adherent cells were collected and the apoptosis was quantified using Annexin V-FITC reagent (BD Biosciences Pharmingen) and PI (Invitrogen) following the manufacturer's protocol. Briefly, the cells were washed twice with cold PBS and then resuspend cell in 100 μl of × binding buffer containing a 10 μl of Annexin V-FITC (BD-Pharminagen) and 2 μl of PI from the stock of 100 μg/ml. The cells were gently vortexed and incubated for 15 min at room temperature in the dark. Subsequently 400 μl of 1× binding buffer were added to each tube, and the samples were immediately analyzed by FACScan flow cytometer (Becton Dickinson). The fluorescent signals of the Annexin-V conjugate and PI were detected at channels of fluorescence intensity FL1 and FL2 (BD LSR II with software BD).
Cells undergoing apoptosis would stain positive for Annexin and negative for PI (quadrant 4, Q4). Cells which stained positive for both Annexin V-FITC and PI (Q2) are either at the end stage of apoptosis or undergoing necrosis, and those which stained negative for both Annexin V-FITC and PI (Q3) were alive or undergoing undetectable apoptosis. In contrast, cell debris stained only for PI (Q1).

The subject of data set [4] is FVB mice. The data set can be described thus: General toxicity of IMSs in mice. In kind it is in vivo. Conditions: intraperitoneally every other day for 2 weeks. The procedure: (§1) IMSs (DPIM and DBZIM) were dissolved in saline, and administered to Friend virus B-Type (FVB) mice (weighing ˜25-30 g) intraperitoneally every other day for 2 weeks. The dosages were 0, 200, 300, 350, 400 and 500 mg/kg for DPIM, and 0, 10, 30, 35, 40 and […] for DBZIM. The injection volume was maintained at 100-160 μl. The mortality rate of mice was assessed after the treatment. The animal experimental protocol was approved by the Institutional Animal Care and Use Committee (IACUC) of Biological Resource Center (BRC) at Biopolis, Singapore.
(§2) In the preliminary toxicity studies, two forms of IMSs were selected for in vivo testing with FVB inbred mice. For DBZIM, the lethal dosage was 50 mg/kg and LD50 was estimated to be 30-40 mg/kg. For DPIM, the lethal dosage was 500 mg/kg and LD50 was ˜300-400 mg/kg.

Data set [5] can be described thus: General toxicity of IMSs in mice. Conditions: mouse, in vivo, ip; FVB mice, intraperitoneally every other day for 2 weeks; estimated. In kind it is in vivo. The procedure:
as §1, §2

With `CC(=O)Oc1ccc(C[n+]2ccn(Cc3ccccc3)c2C)cc1.[Cl-]` [IBN-19, 1-benzyl-3-(4-acetate-benzyl)-2-methyl-imidazolium chloride], the “p53 expression and nuclear accumulation” value in data set [1] was “induced p53 expression and accumulation in the nucleus”. Besides, in data set [2], the “cells in the S phase” value stood at 19.8%, the “cells in the G2/M phase” value worked out at 23.7% and the “cells in the G1 phase” value was determined as 29%. The “cell apoptosis (Q2)” value in data set [3] turned out to be 29%.
As usually defined, the LD50 is the dose expected to kill half of the subjects tested. In turn, `CC(C)n1cc[n+](C(C)C)c1.F[B-](F)(F)F` [DPIM, 1,3-diisopropylimidazolium tetrafluoroborate] showed a lethal dosage in data set [4] of 500 mg/kg. In addition, in data set [5], the LD50 at 2 weeks was 300 to 400 mg/kg.
On to `[Br-].c1ccc(Cn2cc[n+](Cc3ccccc3)c2)cc1` [DBZIM, 1,3-bisbenzylimidazolium bromide], for which, in data set [4], the lethal dosage is 50 mg/kg. Also, the LD50 at 2 weeks in data set [5] was 30 to 40 mg/kg.
As for `Cc1ccc(C[n+]2ccn(Cc3ccccc3)c2)cc1.[Cl-]` [IBN-24, 1-benzyl-3-(4-methylbenzyl)-imidazolium chloride], the “p53 expression and nuclear accumulation” value in data set [1] was “induced p53 expression and accumulation in the nucleus”. Besides, in data set [2], the “cells in the S phase” value came to 11.34%, the “cells in the G2/M phase” value is on record as 16.3% and the “cells in the G1 phase” value came out at 28.6%. In addition, in data set [3], the “cell apoptosis (Q2)” value is 29%.
